# Patent US20240287489A1, “CHITINOLYTIC ENZYME-BASED PLANT PROTECTION AGENTS” (GLOBACHEM NV, priority 2021, published 2024)
# Assays:
# Assay in all cases: Effect of metallic ions and chemical compounds on chitinase activity
# Format in all cases: biochemical, P. orarium
# Conditions in all cases: relative to standard MAT buffer control (100%); ions and EDTA 1 mM, Tween 20 0.5% v/v, SDS 0.5% w/v; 2 μM enzyme
# recombinant chitinase C1 = system: recombinant chitinase C1
# Description: (§1) The addition of different co-factors and chemicals was assessed to determine whether they stimulate or inhibit enzymatic activity and the effect was evaluated relative to the control in standard MAT buffer (33 mM 2-(N-morpholino) ethanesulfonic acid (MES), 33 mM sodium acetate, 33 mM Tris(hydroxymethyl) aminomethane (TRIS); pH 8.0). The selection of tested compounds at the respective concentrations was based on findings for different chitinases so far [Zarei et al., J. Microbiol., 2011. 42: p. 1017-1029.]. […] All enzymes were inhibited the strongest by Zn2+ and Cu2+ and SDS (0.5% w/v) resulting in a relative loss of activity of up to 99%. […] Inhibitory effects of Ni2+ and imidazole on enzymatic activity also underline the requirement for dialysis of the elution fractions after purification in order to remove residual Ni2+ and imidazole from the elution buffer.
# (§2) Enzyme samples were incubated at different temperature (10-60° C., 10° C. increment) and pH (4-11, increment 1) using different buffer systems (Acetate, Tris-HCl, MES, total molar concentration 100 mM), as well as NaCl content (0, 1. 2.5, 5, 10 and 20% w/v) to determine optimum reaction conditions. All experiments were carried out at 1.0 ml scale using 2 μM of the respective enzymes and a 5% (wv) suspension of chitin powder extracted from shrimp shells (˜400.000 g/mol; Carl, Roth) in 100 mM MAT buffer. For the determination of the substrate specificity, chitin powder (5% w/v), glycol chitin (10% v/v), colloidal chitin (5% w/v), chitosan [DA 15-25%, medium molecular weight, Sigma-Aldrich] (5% w/v) and microcrystalline cellulose powder (Sigma Aldrich) (5% w/v) were investigated, respectively. The effect of several potential co-factors on activity was elucidated at a concentration of 1 mM. Additionally, the effect of detergents [SDS 0.5% (w/v), Tween-20 and Triton X-100 both at 0.5% (v/v)] and chemicals (Imidazole 100 mM, EDTA 1 mM) on enzymatic activity was assessed. Samples were incubated in a thermomixer for 16 h at 900 rpm. After incubation, samples were analyzed using the enzyme assay. Thermostability was assessed after incubation of recombinant chitinases at 60° C. for different durations followed by the quantification of residual enzyme activity under standard assay conditions.
# recombinant chitinase C2 = system: recombinant chitinase C2
# Description: as §1, §2
# recombinant chitinase C3 = system: recombinant chitinase C3
# Description: as §1, §2
# recombinant chitinase C4 = system: recombinant chitinase C4
# Description: as §1, §2
# recombinant chitinase C5 = system: recombinant chitinase C5
# Description: as §1, §2
Structure (SMILES),[%] Residual activity C1 (recombinant chitinase C1) [%],[%] Residual activity C2 (recombinant chitinase C2) [%],[%] Residual activity C3 (recombinant chitinase C3) [%],[%] Residual activity C4 (recombinant chitinase C4) [%],[%] Residual activity C5 (recombinant chitinase C5) [%]
[Ca+2] [Ca^2+],92.7 ± 2.1,35.6 ± 1.7,94.7 ± 2.0,3.8 ± 0.4,21.3 ± 0.1
[Cu+2] [Cu^2+],11.1 ± 3.7,12.3 ± 0.9,16.9 ± 0.2,14.8 ± 3.4,3.9 ± 2.9
O=C(O)CN(CCN(CC(=O)O)CC(=O)O)CC(=O)O [EDTA],68.9 ± 0.7,20.4 ± 1.6,80.8 ± 4.8,73.9 ± 4.1,28.0 ± 0.9
[K+] [K^2+],100.1 ± 2.8,44.8 ± 2.3,72.6 ± 1.7,3.7 ± 0.2,28.6 ± 0.4
[Mg+2] [Mg^2+],99.8 ± 3.1,38.7 ± 1.7,68.8 ± 2.8,3.3 ± 0.2,25.8 ± 0.9
[Ni+2] [Ni^2+],76.6 ± 5.1,23.0 ± 0.7,64.8 ± 1.2,38.8 ± 1.7,5.6 ± 0.3
"CCCCCCCCCCCCOS(=O)(=O)[O-].[Na+] [SDS, sodium dodecyl sulfate]",1.5 ± 0.2,21.6 ± 1.0,2.4 ± 1.9,33.2 ± 3.4,19.9 ± 0.3
[Zn+2] [Zn^2+],30.5 ± 0.3,2.3 ± 0.4,21.7 ± 0.1,8.1 ± 0.7,0.6 ± 0.5
